Test results from PubChem BioAssay AID1963867 (Molecular Pharmacology Branch, DTP, NCI, 2024).

Tested on: KRAS-mutant PDC tumor spheroid with HUVEC/MSC, viability
Experiment: Anticancer human tumor 327498-153-R-J2-PDC patient-derived uterine carcinosarcoma cell line growth inhibition [KRAS2]
Conditions: for IC50: curve of first compound; for viability, T/C: stronger effect = lower value
Outline: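 Combination screen of spheroid viability in tumor-cell co-cultures with endothelial (HUVEC) and mesenchymal stem cell stroma. Each agent was tested in half-log dilutions, topping at clinical Cmax or at 10 microM without a known Cmax.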

[1] = second compound 0.0316 µM, first compound 0.000316 µM
[2] = second compound 0.0316 µM, first compound 0.001 µM
[3] = second compound 0.0316 µM, first compound 0.00316 µM
[4] = second compound 0.0316 µM, first compound 0.01 µM
[5] = second compound 0.0316 µM, first compound 0.0316 µM
[6] = second compound 0.1 µM, first compound 0.000316 µM
[7] = second compound 0.1 µM, first compound 0.001 µM
[8] = second compound 0.1 µM, first compound 0.00316 µM
[9] = second compound 0.1 µM, first compound 0.01 µM
[10] = second compound 0.1 µM, first compound 0.0316 µM
[11] = second compound 0.316 µM, first compound 0.000316 µM
[12] = second compound 0.316 µM, first compound 0.001 µM
[13] = second compound 0.316 µM, first compound 0.00316 µM
[14] = second compound 0.316 µM, first compound 0.01 µM
[15] = second compound 0.316 µM, first compound 0.0316 µM
[16] = second compound 1 µM, first compound 0.000316 µM
[17] = second compound 1 µM, first compound 0.001 µM
[18] = second compound 1 µM, first compound 0.00316 µM
[19] = second compound 1 µM, first compound 0.01 µM
[20] = second compound 1 µM, first compound 0.0316 µM
[21] = second compound 3.16 µM, first compound 0.000316 µM
[22] = second compound 3.16 µM, first compound 0.001 µM
[23] = second compound 3.16 µM, first compound 0.00316 µM
[24] = second compound 3.16 µM, first compound 0.01 µM
[25] = second compound 3.16 µM, first compound 0.0316 µM
[26] = second compound 0.0316 µM, first compound 0.1 µM
[27] = second compound 0.1 µM, first compound 0.1 µM
[28] = second compound 0.316 µM, first compound 0.1 µM
[29] = second compound 1 µM, first compound 0.1 µM
[30] = second compound 3.16 µM, first compound 0.1 µM
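Further: spheroids exposed to agents for seven days before reading.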
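Wherever viability, T/C is given: 100% = DMSO vehicle wells so lower means fewer viable cells.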

Work on `CC(=O)Nc1cccc(-n2c(=O)n(C3CC3)c(=O)c3c(Nc4ccc(I)cc4F)n(C)c(=O)c(C)c32)c1` + C=CC(=O)N1CCN(c2nc(OCC3CCCN3C)nc3c2CCN(c2cccc4cccc(C)c24)C3)CC1CC#N yielded an IC50 (second compound 0.0316 µM) of 6.53 nM, an IC50 (second compound 0.1 µM) of 5.43 nM and an IC50 (second compound 0.316 µM) of 3.49 nM. For the same molecule, the IC50 (second compound 1 µM) was 0.128 nM, the IC50 (second compound 3.16 µM) was < 0.1 nM and the viability, T/C (second compound 0.0316 µM, first compound 0.0001 µM) was 72.7%. For the same molecule, the viability, T/C [1] was 64.8%, the viability, T/C [2] was 57.4% and the viability, T/C [3] was 58%. It also gave a viability, T/C [4] of 49.1%, a viability, T/C [5] of 31.4% and a viability, T/C (second compound 0.1 µM, first compound 0.0001 µM) of 67.1%. For the same molecule, the viability, T/C [6] was 68.3%, the viability, T/C [7] was 58.4% and the viability, T/C [8] was 53%. The viability, T/C [9] was 47.8%, the viability, T/C [10] was 25.4% and the viability, T/C (second compound 0.316 µM, first compound 0.0001 µM) was 58.5%. The viability, T/C [11] was 54.6%, the viability, T/C [12] was 55.7% and the viability, T/C [13] was 48%. The viability, T/C [14] was 44.7%, the viability, T/C [15] was 25.5% and the viability, T/C (second compound 1 µM, first compound 0.0001 µM) was 48.5%. The viability, T/C [16] was 52.4%, the viability, T/C [17] was 45.7% and the viability, T/C [18] was 41.9%. It also gave a viability, T/C [19] of 35.8%, a viability, T/C [20] of 22.1% and a viability, T/C (second compound 3.16 µM, first compound 0.0001 µM) of 0.75%. For the same molecule, the viability, T/C [21] was 0.19%, the viability, T/C [22] was 0.19% and the viability, T/C [23] was 0.22%. The viability, T/C [24] was 0.18% and the viability, T/C [25] was 0.31%.

In the case of `CN(C)C/C=C/C(=O)Nc1cc2c(Nc3ccc(F)c(Cl)c3)ncnc2cc1O[C@H]1CCOC1` + C=CC(=O)N1CCN(c2nc(OCC3CCCN3C)nc3c2CCN(c2cccc4cccc(C)c24)C3)CC1CC#N, the IC50 (second compound 0.0316 µM) is reported as > 100 nM, the IC50 (second compound 0.1 µM) is reported as 22 nM and the IC50 (second compound 0.316 µM) is reported as 2.29 nM. The IC50 (second compound 1 µM) was 2.8 nM, the IC50 (second compound 3.16 µM) was < 0.316 nM and the viability, T/C [1] was 88.8%. The viability, T/C [2] was 80.8%, the viability, T/C [3] was 74.4% and the viability, T/C [4] was 64.2%. For the same molecule, the viability, T/C [5] was 66.5%, the viability, T/C [26] was 61.4% and the viability, T/C [6] was 62.9%. For the same molecule, the viability, T/C [7] was 64.1%, the viability, T/C [8] was 50.8% and the viability, T/C [9] was 53.7%. For the same molecule, the viability, T/C [10] was 48.4%, the viability, T/C [27] was 47.5% and the viability, T/C [11] was 66.8%. It also gave a viability, T/C [12] of 56.2%, a viability, T/C [13] of 45.2% and a viability, T/C [14] of 44.8%. It also gave a viability, T/C [15] of 50.2%, a viability, T/C [28] of 45.1% and a viability, T/C [16] of 56.3%. It also gave a viability, T/C [17] of 54.9%, a viability, T/C [18] of 47% and a viability, T/C [19] of 49.1%. It also gave a viability, T/C [20] of 43.6%, a viability, T/C [29] of 44% and a viability, T/C [21] of 1.53%. It also gave a viability, T/C [22] of 0.35%, a viability, T/C [23] of 0.21% and a viability, T/C [24] of 1.34%. For the same molecule, the viability, T/C [25] was 0.49% and the viability, T/C [30] was 0.3%.

`COC(=O)c1ccc2c(C(=Nc3ccc(N(C)C(=O)CN4CCN(C)CC4)cc3)c3ccccc3)c(O)[nH]c2c1` + C=CC(=O)N1CCN(c2nc(OCC3CCCN3C)nc3c2CCN(c2cccc4cccc(C)c24)C3)CC1CC#N was tested, and the IC50 (second compound 0.0316 µM) was 142 nM, the IC50 (second compound 0.1 µM) was < 31.6 nM and the IC50 (second compound 0.316 µM) was < 31.6 nM. For the same molecule, the IC50 (second compound 1 µM) was < 31.6 nM, the IC50 (second compound 3.16 µM) was < 31.6 nM and the viability, T/C [5] was 52.8%. For the same molecule, the viability, T/C [26] was 54.7%, the viability, T/C (second compound 0.0316 µM, first compound 0.316 µM) was 42.9% and the viability, T/C (second compound 0.0316 µM, first compound 1 µM) was 23.4%. The viability, T/C (second compound 0.0316 µM, first compound 3.16 µM) was 8.28%, the viability, T/C (second compound 0.0316 µM, first compound 10 µM) was 7.36% and the viability, T/C [10] was 45.9%. For the same molecule, the viability, T/C [27] was 42%, the viability, T/C (second compound 0.1 µM, first compound 0.316 µM) was 37.1% and the viability, T/C (second compound 0.1 µM, first compound 1 µM) was 13%. For the same molecule, the viability, T/C (second compound 0.1 µM, first compound 3.16 µM) was 7.74%, the viability, T/C (second compound 0.1 µM, first compound 10 µM) was 5.84% and the viability, T/C [15] was 49.2%. For the same molecule, the viability, T/C [28] was 41.6%, the viability, T/C (second compound 0.316 µM, first compound 0.316 µM) was 29.6% and the viability, T/C (second compound 0.316 µM, first compound 1 µM) was 14.4%. The viability, T/C (second compound 0.316 µM, first compound 3.16 µM) was 5.46%, the viability, T/C (second compound 0.316 µM, first compound 10 µM) was 4% and the viability, T/C [20] was 38.6%. The viability, T/C [29] was 21.5%, the viability, T/C (second compound 1 µM, first compound 0.316 µM) was 16.4% and the viability, T/C (second compound 1 µM, first compound 1 µM) was 9.18%. For the same molecule, the viability, T/C (second compound 1 µM, first compound 3.16 µM) was 0.69%, the viability, T/C (second compound 1 µM, first compound 10 µM) was 1.72% and the viability, T/C [25] was 0.33%. It also gave a viability, T/C [30] of 0.16%, a viability, T/C (second compound 3.16 µM, first compound 0.316 µM) of 0.15% and a viability, T/C (second compound 3.16 µM, first compound 1 µM) of 0.12%. It also gave a viability, T/C (second compound 3.16 µM, first compound 3.16 µM) of 1.49% and a viability, T/C (second compound 3.16 µM, first compound 10 µM) of 0.32%.
